# Reference: patent US12583849B2, “KCNT1 inhibitors and methods of use” (Praxis Precision Medicines, Inc., priority 2020, dated 2026)
# Molecular target: T1, KCNT1 (KNa1.1, Slack) (Homo sapiens, UniProt Q5JUK3)
# T1 construct: expressed in transfected cells; host or cells: HEK-TREX (tetracycline-inducible cell line)
# T1 sequence (Q5JUK3 1-1230): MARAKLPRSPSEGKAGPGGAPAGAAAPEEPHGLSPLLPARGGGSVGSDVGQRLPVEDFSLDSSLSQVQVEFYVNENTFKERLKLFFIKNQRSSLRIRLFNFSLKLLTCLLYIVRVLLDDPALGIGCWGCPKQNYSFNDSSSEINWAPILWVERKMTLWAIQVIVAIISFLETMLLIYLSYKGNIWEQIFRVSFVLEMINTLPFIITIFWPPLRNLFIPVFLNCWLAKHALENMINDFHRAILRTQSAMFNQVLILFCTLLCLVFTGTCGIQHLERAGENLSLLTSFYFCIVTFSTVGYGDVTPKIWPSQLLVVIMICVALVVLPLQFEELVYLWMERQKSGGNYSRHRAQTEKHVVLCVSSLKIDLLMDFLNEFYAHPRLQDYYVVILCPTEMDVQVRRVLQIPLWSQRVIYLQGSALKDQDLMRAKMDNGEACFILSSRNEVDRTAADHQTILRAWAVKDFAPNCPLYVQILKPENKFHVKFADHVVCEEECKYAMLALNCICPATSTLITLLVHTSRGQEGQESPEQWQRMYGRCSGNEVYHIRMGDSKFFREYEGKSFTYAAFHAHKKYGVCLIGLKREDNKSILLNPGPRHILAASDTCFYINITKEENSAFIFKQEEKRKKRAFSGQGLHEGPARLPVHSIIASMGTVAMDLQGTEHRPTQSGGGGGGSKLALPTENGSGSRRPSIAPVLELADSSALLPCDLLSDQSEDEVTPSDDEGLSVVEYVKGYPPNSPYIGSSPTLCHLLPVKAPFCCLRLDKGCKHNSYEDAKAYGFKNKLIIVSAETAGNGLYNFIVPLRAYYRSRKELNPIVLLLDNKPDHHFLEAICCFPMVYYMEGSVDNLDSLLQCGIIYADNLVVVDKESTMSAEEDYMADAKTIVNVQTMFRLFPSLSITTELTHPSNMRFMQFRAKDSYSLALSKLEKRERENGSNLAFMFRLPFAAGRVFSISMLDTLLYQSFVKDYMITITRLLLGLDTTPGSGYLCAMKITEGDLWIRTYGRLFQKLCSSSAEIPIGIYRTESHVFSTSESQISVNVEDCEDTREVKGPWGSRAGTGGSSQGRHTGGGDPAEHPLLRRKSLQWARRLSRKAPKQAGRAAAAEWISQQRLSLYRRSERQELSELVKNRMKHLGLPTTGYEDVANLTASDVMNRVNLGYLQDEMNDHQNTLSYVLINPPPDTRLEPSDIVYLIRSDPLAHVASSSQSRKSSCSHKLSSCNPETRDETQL
# Experiment: KCNT1-WT-Basal Patch Clamp Assay
# Format: cell-based
# Settings: tetracycline inducible cell line (HEK-TREX); SyncroPatch 384PE automated patch clamp, perforated patch mode, room temperature, step from -80 mV to 0 mV
# Procedure, shortened: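 Tetracycline-inducible HEK-TREX cells expressing human KCNT1, recorded by automated perforated patch clamp (10 μM escin) at room temperature, with 4 mM external K+ at pH 7.4. Mean current taken during a 100 ms step from −80 mV to 0 mV, averaged over 3 sweeps. IC50 from Hill fit of % inhibition; otherwise % inhibition at top concentration.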
row,SMILES,IC50
1,"Cc1c(C(=O)NC(C)c2nc(-c3cccc(F)c3)no2)nc2ccccn12 (stereo not drawn) [Compound I-49, N-[1-[3-(3-fluorophenyl)-1,2,4-oxadiazol-5-yl]ethyl]-3-methyl-imidazo[1,2-a]pyridine-2-carboxamide]",≥ 20 µM
2,"C[C@H](NC(=O)c1ccns1)c1nc(-c2ccnc(C(F)(F)F)c2)no1 [Compound I-22, (S)—N-(1-(3-(2-(trifluoromethyl)pyridin-4-yl)-1,2,4-oxadiazol-5-yl)ethyl)isothiazole-5-carboxamide]",1 to 20 µM
3,"C[C@H](NC(=O)c1csc(C(F)(F)F)n1)c1nc(-c2ccnc(C(F)(F)F)c2)no1 [Compound I-10, (S)-2-(trifluoromethyl)-N-(1-(3-(2-(trifluoromethyl)pyridin-4-yl)-1,2,4-oxadiazol-5-yl)ethyl)thiazole-4-carboxamide]",≤ 1 µM
4,"Cc1nc(C)c(C(=O)N[C@@H](C)c2nc(-c3cccc(F)c3)no2)s1 [Compound I-39, (S)—N-(1-(3-(3-fluorophenyl)-1,2,4-oxadiazol-5-yl)ethyl)-2,4-dimethylthiazole-5-carboxamide]",1 to 20 µM

# Further lines, results first:
row,IC50,SMILES
1,≤ 1 µM,"C[C@H](NC(=O)c1cc(F)cc(F)c1)c1nc(-c2ccnc(C3CC3)c2)no1 [Compound I-102, (S)—N-(1-(3-(2-cyclopropylpyridin-4-yl)-1,2,4-oxadiazol-5-yl)ethyl)-3,5-difluorobenzamide]"
2,≤ 1 µM,"CCS(=O)(=O)c1ccc(C(=O)N[C@@H](C)c2nc(-c3ccnc(C4CC4)c3)no2)s1 [Compound I-93, (S)—N-(1-(3-(2-cyclopropylpyridin-4-yl)-1,2,4-oxadiazol-5-yl)ethyl)-5-(ethylsulfonyl)thiophene-2-carboxamide]"
3,≤ 1 µM,"C[C@H](NC(=O)C1CC(C)(C)C1)c1nc(-c2ccnc(C(F)(F)F)c2)no1 [Compound I-56, (S)-3,3-dimethyl-N-(1-(3-(2-(trifluoromethyl)pyridin-4-yl)-1,2,4-oxadiazol-5-yl)ethyl)cyclobutane-1-carboxamide]"
4,≤ 1 µM,"C[C@H](NC(=O)c1ccc(Cl)cc1Cl)c1nc(-c2ccnc(C3CC3)c2)no1 [Compound I-94, (S)-2,4-dichloro-N-(1-(3-(2-cyclopropylpyridin-4-yl)-1,2,4-oxadiazol-5-yl)ethyl)benzamide]"
5,≤ 1 µM,C[C@H](NC(=O)N(C)C(C)(C)C)c1nc(-c2ccnc(C3CC3)c2)no1 [II-9]
